What was measured:
[1] = target: 5-hydroxytryptamine receptor 2A (Homo sapiens, UniProt P28223); assay: Displacement of [3H]Ketanserin from human recombinant 5-HT2A receptor expressed in HEK cells after 90 mins by scintillation counting analysis; format: cell-based, HEK293
[2] = target: T1, 5-hydroxytryptamine receptor 3A (Mus musculus, UniProt P23979); assay: Antagonist activity at mouse 5-HT3A receptor expressed in Xenopus oocytes assessed as reduction of 5HT-induced current by two-electrode voltage clamp technique; format: cell-based, Oocyte
T1 sequence (P23979 whole entry): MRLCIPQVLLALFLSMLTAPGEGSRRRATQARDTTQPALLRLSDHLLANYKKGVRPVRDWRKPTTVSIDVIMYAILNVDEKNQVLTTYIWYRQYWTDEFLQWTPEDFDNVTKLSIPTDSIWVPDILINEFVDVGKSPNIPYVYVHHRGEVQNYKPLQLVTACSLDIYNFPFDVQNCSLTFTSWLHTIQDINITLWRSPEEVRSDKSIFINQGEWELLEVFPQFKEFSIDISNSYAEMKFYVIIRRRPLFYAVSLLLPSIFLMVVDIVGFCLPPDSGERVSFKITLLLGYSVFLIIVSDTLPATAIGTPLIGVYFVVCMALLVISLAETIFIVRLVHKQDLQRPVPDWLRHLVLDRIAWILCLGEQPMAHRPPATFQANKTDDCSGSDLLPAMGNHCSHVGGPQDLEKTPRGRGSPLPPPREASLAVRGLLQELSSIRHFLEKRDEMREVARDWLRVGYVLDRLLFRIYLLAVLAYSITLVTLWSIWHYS

[3] = target: T1, 5-hydroxytryptamine receptor 3A; assay: Displacement of [3H]LY278584 from mouse 5-HT3A receptor
[4] = target: T2, 5-hydroxytryptamine receptor 3A (Homo sapiens, UniProt P46098); assay: Displacement of [3H]GR65630 from 5-HT3 receptor (unknown origin) expressed in mouse/rat NG108-15 cells after 30 mins by liquid scintillation counting analysis; format: cell-based
T2 sequence (P46098 whole entry): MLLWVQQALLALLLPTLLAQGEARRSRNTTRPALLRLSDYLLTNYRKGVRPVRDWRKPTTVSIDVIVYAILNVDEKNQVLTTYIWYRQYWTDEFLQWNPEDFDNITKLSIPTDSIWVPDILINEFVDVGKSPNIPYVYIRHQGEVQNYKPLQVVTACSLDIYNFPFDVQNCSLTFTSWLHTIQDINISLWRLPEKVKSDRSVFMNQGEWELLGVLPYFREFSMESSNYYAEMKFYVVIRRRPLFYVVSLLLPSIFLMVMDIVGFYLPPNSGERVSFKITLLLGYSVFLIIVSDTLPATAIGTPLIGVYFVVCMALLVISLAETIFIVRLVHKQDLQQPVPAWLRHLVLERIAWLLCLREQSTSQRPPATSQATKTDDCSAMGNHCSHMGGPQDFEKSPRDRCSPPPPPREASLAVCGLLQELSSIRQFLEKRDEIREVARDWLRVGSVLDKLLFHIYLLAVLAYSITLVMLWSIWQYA

Mus musculus = assay: Toxicity in ICR mouse assessed as total movement distance at 1 to 3 mg/kg, ip after 15 to 45 mins by locomotor activity assay relative to vehicle-treated control; format: organism-based; design: route intraperitoneal; details: in vivo
Mu-type opioid receptor = Mu-type opioid receptor (Homo sapiens, UniProt P35372); assay: Displacement of [3H]DAMGO from human recombinant mu opioid receptor expressed in HEK cells after 90 mins by scintillation counting analysis; format: cell-based, HEK293
[5] = target: Muscarinic acetylcholine receptor M3 (Homo sapiens, UniProt P20309); assay: Binding affinity to human recombinant muscarinic M3 receptor expressed in CHO cells after 90 mins by radioligand displacement assay; format: cell-based
[6] = target: Muscarinic acetylcholine receptor M1 (Homo sapiens, UniProt P11229); assay: Binding affinity to human recombinant muscarinic M1 receptor expressed in CHO cells after 90 mins by radioligand displacement assay; format: cell-based
Histamine H1 receptor = Histamine H1 receptor (Homo sapiens, UniProt P35367); assay: Displacement of [3H]Pyrilamine from human recombinant histamine H1 receptor expressed in HEK cells after 90 mins by scintillation counting analysis; format: cell-based, HEK293
[7] = Displacement of [3H]Muscimol from GABAA in rat brain after 90 mins by scintillation counting analysis; format: tissue-based
D(1A) dopamine receptor = D(1A) dopamine receptor (Homo sapiens, UniProt P21728); assay: Displacement of [3H]SCH23390 from human recombinant dopamine D1 receptor expressed in HEK cells after 90 mins by scintillation counting analysis; format: cell-based, HEK293
[8] = target: Beta-3 adrenergic receptor (Homo sapiens, UniProt P13945); assay: Binding affinity to human recombinant beta3-adrenoceptor expressed in HEK cells after 90 mins by radioligand displacement assay; format: cell-based, HEK293
[9] = target: Beta-2 adrenergic receptor (Homo sapiens, UniProt P07550); assay: Displacement of [3H]CGP12177 from human recombinant beta2-adrenoceptor expressed in HEK cells after 90 mins by scintillation counting analysis; format: cell-based, HEK293
[10] = target: Alpha-1D adrenergic receptor (Homo sapiens, UniProt P25100); assay: Displacement of [3H]Prazosin from human recombinant alpha1D-adrenoceptor after 90 mins by scintillation counting analysis
[11] = target: Alpha-1B adrenergic receptor (Homo sapiens, UniProt P35368); assay: Displacement of [3H]Prazosin from human recombinant alpha1B-adrenoceptor expressed in HEK cells after 90 mins by scintillation counting analysis; format: cell-based, HEK293
[12] = target: Alpha-1A adrenergic receptor (Homo sapiens, UniProt P35348); assay: Displacement of [3H]Prazosin from human recombinant alpha1A-adrenoceptor after 90 mins by scintillation counting analysis
[13] = target: Neuronal acetylcholine receptor; alpha4/beta2 (Homo sapiens, UniProt P17787+P43681); assay: Displacement of [3H]-epibatidine from human alpha4beta2 nAChR transfected in HEK293 cells by scintillation counting analysis; format: cell-based
[14] = target: Nicotinic acetylcholine receptor alpha2/beta2 (Homo sapiens, UniProt P02708+P17787); assay: Displacement of [3H]-epibatidine from human alpha2beta2 nAChR transfected in HEK293 cells by scintillation counting analysis; format: cell-based
[15] = target: 5-hydroxytryptamine receptor 4 (Homo sapiens, UniProt Q13639); assay: Displacement of [[3H]GR113808 from human recombinant 5-HT4 receptor after 90 mins by scintillation counting analysis
[16] = target: 5-hydroxytryptamine receptor 6 (Homo sapiens, UniProt P50406); assay: Displacement of [3H]LSD from human recombinant 5-HT6 receptor expressed in HEK cells after 90 mins by scintillation counting analysis; format: cell-based, HEK293
[17] = Displacement of [3H]DTG from sigma2 receptor (unknown origin) expressed in rat PC12 cells after 90 mins by scintillation counting analysis; format: cell-based, Homo sapiens; details: pc-12
[18] = target: Alpha-2C adrenergic receptor (Homo sapiens, UniProt P18825); assay: Displacement of [3H]Rauwolscine from human recombinant alpha2C-adrenoceptor expressed in MDCK cells after 90 mins by scintillation counting analysis; format: cell-based
[19] = target: Alpha-2B adrenergic receptor (Homo sapiens, UniProt P18089); assay: Displacement of [3H]Rauwolscine from human recombinant alpha2B-adrenoceptor expressed in HEK cells after 90 mins by scintillation counting analysis; format: cell-based, HEK293
[20] = target: Alpha-2A adrenergic receptor (Homo sapiens, UniProt P08913); assay: Displacement of [3H]Rauwolscine from human recombinant alpha2A-adrenoceptor expressed in MDCK cells after 90 mins by scintillation counting analysis; format: cell-based

Chain of Nicotinic acetylcholine receptor alpha2/beta2 (P02708 whole entry): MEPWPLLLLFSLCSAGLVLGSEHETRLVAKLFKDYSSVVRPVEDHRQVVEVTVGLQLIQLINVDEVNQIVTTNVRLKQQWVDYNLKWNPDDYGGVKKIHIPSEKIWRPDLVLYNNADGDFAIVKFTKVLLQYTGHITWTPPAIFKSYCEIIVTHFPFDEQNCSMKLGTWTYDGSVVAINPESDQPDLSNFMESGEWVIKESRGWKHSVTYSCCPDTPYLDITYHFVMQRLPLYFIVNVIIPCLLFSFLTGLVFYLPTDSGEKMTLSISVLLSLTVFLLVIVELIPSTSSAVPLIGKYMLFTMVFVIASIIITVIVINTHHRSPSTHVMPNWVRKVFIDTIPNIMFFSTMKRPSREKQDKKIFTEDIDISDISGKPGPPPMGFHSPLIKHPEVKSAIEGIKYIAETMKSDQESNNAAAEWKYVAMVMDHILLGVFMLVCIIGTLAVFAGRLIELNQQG
Chain of Nicotinic acetylcholine receptor alpha2/beta2 (P17787 whole entry): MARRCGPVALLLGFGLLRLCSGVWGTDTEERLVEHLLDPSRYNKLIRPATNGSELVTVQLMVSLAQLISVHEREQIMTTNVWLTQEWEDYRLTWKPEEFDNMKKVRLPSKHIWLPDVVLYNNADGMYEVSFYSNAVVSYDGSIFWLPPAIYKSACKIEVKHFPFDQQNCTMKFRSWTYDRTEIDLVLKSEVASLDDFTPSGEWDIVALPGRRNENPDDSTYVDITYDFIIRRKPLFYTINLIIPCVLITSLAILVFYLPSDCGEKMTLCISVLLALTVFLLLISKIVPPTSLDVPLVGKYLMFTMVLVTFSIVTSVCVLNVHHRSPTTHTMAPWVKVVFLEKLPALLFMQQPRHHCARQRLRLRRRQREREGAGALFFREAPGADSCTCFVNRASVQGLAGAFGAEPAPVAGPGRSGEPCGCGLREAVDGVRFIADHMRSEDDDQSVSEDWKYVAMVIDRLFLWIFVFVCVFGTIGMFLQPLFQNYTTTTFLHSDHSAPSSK
Chain of 5-hydroxytryptamine receptor 6 (P50406 whole entry): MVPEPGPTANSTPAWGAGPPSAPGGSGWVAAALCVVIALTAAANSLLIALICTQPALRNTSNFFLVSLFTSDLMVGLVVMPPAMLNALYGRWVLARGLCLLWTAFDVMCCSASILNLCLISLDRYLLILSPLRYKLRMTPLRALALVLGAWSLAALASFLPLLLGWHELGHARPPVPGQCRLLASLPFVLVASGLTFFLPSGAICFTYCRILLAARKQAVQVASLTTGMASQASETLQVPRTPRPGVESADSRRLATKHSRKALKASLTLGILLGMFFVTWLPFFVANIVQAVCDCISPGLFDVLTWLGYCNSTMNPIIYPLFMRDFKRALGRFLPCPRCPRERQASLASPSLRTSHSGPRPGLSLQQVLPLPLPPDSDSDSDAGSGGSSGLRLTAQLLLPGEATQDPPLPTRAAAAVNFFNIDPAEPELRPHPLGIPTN
Chain of 5-hydroxytryptamine receptor 2A (P28223 whole entry): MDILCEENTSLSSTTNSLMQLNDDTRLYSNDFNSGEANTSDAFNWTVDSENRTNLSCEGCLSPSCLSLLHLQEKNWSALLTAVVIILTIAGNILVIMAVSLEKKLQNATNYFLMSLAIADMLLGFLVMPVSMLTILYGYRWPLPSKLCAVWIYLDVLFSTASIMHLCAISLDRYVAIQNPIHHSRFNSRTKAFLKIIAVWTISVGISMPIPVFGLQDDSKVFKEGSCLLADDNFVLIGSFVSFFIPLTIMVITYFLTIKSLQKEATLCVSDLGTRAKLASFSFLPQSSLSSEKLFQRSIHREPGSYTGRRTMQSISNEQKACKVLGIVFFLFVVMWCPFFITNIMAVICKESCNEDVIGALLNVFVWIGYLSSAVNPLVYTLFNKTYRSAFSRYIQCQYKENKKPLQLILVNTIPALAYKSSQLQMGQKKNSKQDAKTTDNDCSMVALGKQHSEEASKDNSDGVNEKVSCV
Chain of Muscarinic acetylcholine receptor M3 (P20309 whole entry): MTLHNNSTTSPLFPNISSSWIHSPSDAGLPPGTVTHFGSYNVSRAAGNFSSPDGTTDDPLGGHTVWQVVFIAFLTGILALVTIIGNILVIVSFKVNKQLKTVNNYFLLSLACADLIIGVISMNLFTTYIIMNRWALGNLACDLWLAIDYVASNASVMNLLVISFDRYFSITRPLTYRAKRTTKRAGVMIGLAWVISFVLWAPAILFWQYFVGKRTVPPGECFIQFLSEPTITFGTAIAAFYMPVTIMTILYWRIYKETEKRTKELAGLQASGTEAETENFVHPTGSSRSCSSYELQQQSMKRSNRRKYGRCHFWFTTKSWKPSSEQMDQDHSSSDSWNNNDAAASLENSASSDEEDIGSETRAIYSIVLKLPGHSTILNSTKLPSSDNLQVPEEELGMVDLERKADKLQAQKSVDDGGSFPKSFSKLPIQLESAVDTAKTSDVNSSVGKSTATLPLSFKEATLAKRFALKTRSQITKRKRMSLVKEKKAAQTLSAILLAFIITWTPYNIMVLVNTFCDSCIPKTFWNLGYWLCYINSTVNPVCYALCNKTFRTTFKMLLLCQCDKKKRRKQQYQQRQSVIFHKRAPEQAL
Chain of Beta-3 adrenergic receptor (P13945 whole entry): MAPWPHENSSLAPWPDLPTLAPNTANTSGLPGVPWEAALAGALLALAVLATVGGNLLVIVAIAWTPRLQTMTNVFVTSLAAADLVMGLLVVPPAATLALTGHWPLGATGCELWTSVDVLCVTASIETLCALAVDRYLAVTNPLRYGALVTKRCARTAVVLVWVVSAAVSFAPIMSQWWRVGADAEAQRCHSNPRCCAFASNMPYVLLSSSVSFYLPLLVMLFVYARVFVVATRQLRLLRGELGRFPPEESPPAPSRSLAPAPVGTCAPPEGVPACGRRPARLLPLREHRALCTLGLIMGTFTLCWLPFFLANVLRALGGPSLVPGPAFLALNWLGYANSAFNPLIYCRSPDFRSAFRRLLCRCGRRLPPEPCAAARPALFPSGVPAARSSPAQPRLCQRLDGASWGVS
Chain of Alpha-1A adrenergic receptor (P35348 whole entry): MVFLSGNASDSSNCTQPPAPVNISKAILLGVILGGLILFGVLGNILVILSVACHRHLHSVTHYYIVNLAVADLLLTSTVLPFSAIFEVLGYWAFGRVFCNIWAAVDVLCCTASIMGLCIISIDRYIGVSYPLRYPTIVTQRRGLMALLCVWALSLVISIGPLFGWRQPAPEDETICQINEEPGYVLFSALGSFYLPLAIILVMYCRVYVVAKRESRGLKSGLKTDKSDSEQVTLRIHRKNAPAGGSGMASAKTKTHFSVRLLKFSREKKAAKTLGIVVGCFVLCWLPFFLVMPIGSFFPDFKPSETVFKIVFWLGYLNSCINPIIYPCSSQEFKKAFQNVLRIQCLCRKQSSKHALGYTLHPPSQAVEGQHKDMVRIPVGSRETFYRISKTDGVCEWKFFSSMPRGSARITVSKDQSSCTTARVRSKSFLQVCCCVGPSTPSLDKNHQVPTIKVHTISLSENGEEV
Chain of Alpha-2C adrenergic receptor (P18825 whole entry): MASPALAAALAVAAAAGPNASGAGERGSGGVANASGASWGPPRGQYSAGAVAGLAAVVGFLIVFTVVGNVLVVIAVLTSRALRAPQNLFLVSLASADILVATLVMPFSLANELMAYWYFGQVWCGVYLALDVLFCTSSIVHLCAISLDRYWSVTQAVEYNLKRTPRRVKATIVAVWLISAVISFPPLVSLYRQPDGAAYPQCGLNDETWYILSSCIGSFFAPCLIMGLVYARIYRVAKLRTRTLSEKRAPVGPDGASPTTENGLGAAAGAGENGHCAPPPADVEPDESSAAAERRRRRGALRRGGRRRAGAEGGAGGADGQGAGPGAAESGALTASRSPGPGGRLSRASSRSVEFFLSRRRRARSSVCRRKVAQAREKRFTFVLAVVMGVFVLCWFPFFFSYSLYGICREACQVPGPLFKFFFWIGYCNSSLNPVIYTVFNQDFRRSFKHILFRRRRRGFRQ
Chain of Alpha-1B adrenergic receptor (P35368 whole entry): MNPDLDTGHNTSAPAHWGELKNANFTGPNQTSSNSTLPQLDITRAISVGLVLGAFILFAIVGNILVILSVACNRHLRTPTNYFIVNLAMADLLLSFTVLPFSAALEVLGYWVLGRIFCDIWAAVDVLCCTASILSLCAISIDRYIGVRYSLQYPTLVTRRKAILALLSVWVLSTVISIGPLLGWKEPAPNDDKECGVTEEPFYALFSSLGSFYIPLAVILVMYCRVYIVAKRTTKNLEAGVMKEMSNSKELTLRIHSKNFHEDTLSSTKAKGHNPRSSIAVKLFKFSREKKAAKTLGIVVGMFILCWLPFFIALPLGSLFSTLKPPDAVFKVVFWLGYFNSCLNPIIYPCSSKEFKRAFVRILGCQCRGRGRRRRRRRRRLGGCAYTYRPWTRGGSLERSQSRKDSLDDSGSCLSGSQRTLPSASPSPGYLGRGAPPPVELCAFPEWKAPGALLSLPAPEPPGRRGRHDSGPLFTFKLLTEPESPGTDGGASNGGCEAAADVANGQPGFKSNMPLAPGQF
Chain of Alpha-1D adrenergic receptor (P25100 whole entry): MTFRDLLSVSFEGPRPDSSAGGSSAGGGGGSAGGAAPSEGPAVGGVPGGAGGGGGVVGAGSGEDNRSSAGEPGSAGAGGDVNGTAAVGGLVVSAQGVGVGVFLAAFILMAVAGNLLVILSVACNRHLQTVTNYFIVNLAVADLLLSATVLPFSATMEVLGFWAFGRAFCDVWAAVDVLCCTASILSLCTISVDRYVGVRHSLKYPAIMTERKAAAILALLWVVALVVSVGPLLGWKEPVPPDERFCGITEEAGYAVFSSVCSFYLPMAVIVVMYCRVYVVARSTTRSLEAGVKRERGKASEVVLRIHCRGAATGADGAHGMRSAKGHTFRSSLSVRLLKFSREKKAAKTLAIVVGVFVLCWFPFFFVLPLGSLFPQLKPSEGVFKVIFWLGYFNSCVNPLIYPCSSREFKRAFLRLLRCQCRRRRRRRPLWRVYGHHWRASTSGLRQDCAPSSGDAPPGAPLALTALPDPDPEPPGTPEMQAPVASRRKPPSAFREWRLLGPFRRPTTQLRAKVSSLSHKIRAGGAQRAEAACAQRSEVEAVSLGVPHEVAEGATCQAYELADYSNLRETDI

Cl.NC1=Nc2ccc(Cl)cc2CN1
Ki [1]: 1320 nM | IC50 [2]: 260 nM | Ki [3]: 80 nM | Ki [4]: 34 nM | Activity (Mus musculus): Non-toxic | Ki (Mu-type opioid receptor): > 10 µM | Ki [5]: > 10 µM | Ki [6]: > 10 µM | Ki (Histamine H1 receptor): > 10 µM | Ki [7]: > 10 µM | Ki (D(1A) dopamine receptor): > 10 µM | Ki [8]: > 10 µM | Ki [9]: > 10 µM | Ki [10]: > 10 µM | Ki [11]: > 10 µM | Ki [12]: > 10 µM | Ki [13]: > 10 µM | Ki [14]: > 10 µM | Ki [15]: > 10 µM | Ki [16]: > 10 µM | Ki [17]: 2650 nM | pKi [17]: 5.6 | Ki [18]: 840 nM | Ki [19]: 243 nM | Ki [20]: 283 nM

From ChEMBL document CHEMBL2434905, “2-Amino-6-chloro-3,4-dihydroquinazoline: A novel 5-HT3 receptor antagonist with antidepressant character” (Bioorg Med Chem Lett, 2013)
